Data reported in patent US20050220900A1, “Use of extracts containing phytoestrogen selectively modulating estrogen-receptor-beta” (priority 2002, published 2005).

Key:
[1] = test system: human granulosa/luteal cells; assay: progesterone secretion of human granulosa/luteal cells; format: cell-based; settings: 5-hour incubation, 1 μM
Description: Luteal cell cultures are an established test method for the paracrine effect of steroids. Such cells are not available from humans, since all surgical procedures in which biopsies can be taken are always performed at the follicular phase to avoid the risk of an undetected pregnancy. However, these granulosa/luteal cells become available in the course of in vitro fertilization programs and are maintained in culture, and they behave very much like luteal cells in terms of receptor population and secretory function. An estrogenic effect of vitex agnus castus was tested with this human in vitro testing system. […] FIG. 5: […] The * indicates a significant deviation from the (culture) medium control. FIG. 6 summarizes the effect of vitex agnus castus extracts upon progesterone secretion under this testing system after a 5-hour incubation.

[2] = test system: porcine luteal cells; assay: progesterone secretion of porcine luteal cells; format: cell-based; settings: anti-estrogen alone
Description: To reinforce this conclusion, the cells were incubated with vitex agnus castus extract along with the anti-estrogen tamoxifen.

| SMILES | effect on progesterone secretion [1] | effect on progesterone excretion, tamoxifen alone [2] |
| --- | --- | --- |
| C[C@]12CC[C@@H]3c4ccc(O)cc4CC[C@H]3[C@@H]1CC[C@H]2O [17-alpha estradiol, estradiol 17-alpha] | no effect |  |
| CC/C(=C(\c1ccccc1)c1ccc(OCCN(C)C)cc1)c1ccccc1 [tamoxifen] |  | without effect |
